Source: patent US20090317419A1, “Tetramers” (Duke University, priority 2008, published 2009)
Where two headings read alike, the source gives them in different places. Ends that are not written are not given here. * marks the point of attachment. Biotin = O=C1N[C@H]2[C@H](CS[C@H]2CCCCC(=O)*)N1

How the values were obtained:
[1] = system: total naïve splenic BALB/c B cells; settings: APC-labeled tetramer
Experimental: (§1) Cell isolation, serum collection, and PBMC isolations. Heparinized or non-heparanized blood was collected sub-mandibularly 10 days after immunizations. For preparation of peripheral blood lymphocytes for B cell tetramer analysis, PBMC were isolated from blood collected in heparinized tubes (0.2 ml) using Lympholyte M (Cederlane). For Luminex and ELISA assays, sera was isolated from non-heparanized blood and stored at −20° C. until use. Spleen, bone marrow (BM), and peritoneal cavity (PerC) cells were also collected. For most immunizations, tissues were harvested after the 4th boost, except for kinetic studies, in which tissues from mice were harvested after 1, 3 or 7 days after a single immunization. For BM preparations, femora and tibiae were removed, aspirated with tissue medium using 23 gauge needles, filtered with 70 μm cell strainers (BD labware), and RBC-depleted using Tris-buffered ammonium chloride lysis. For splenocyte preparation, spleens were harvested and dissociated into single-cell suspensions either by passage through 70 μm cell strainers in tissue medium or by using frosted glass slides, and blood erythrocytes were depleted with ammonium chloride lysis. For isolation of peritoneal cells, peritoneal cavities of sacrificed mice were lavaged by injection with 10 ml of PBS, followed by gentle massage of the abdomen, and withdrawal of the peritoneal exudates. BM, splenic, and peritoneal single cell suspensions were centrifuged at 1500 rpm for 5 min and resuspended in 5, 10, and 1 ml of tissue media, respectively, for cell counts and immunofluorescence staining. Cell counts were performed in duplicate on a Coulter ZI Dual Threshold Cell Counter (Coulter).
(§2) Antibodies and flow cytometry. Immunofluorescent staining of single cell suspensions (≧2×10^6) was conducted using pre-mixed combinations of fluorochrome-labeled antibodies and APC-conjugated B cell tetramers at empirically-determined optimal concentrations. All antibodies were from BD unless otherwise stated. […] Other reagents included biotinylated antibodies against dump channel markers: Thy1 (Ox7; Abcam), F4/80 (BM8; Abcam), CD11c (clone HL3), Gr-1 (clone RB6-8C5), TER-119, and NK-1.1 (clone PK136), secondary staining SA-Texas Red conjugate; v-amine live/dead violet dye (Molecular Probes), and Fc block (anti-CD16/32; clone 2.4G2).
(§3) Staining was conducted at 4° C. in several sequential steps in FACS staining buffer (1×PBS with 2% FCS, 0.1% NaN3), washing twice between steps. First, cells were incubated with v-amine live/dead dye for 15 min. Next, cells were stained with APC-labeled tetramers for 30 min. Where applicable, this was preceded by addition of cold tetramer at 10 fold molar excess for 1 h. Finally, cells were stained with Fc block for 30 min, followed by incubation with combinations of primary antibody cocktails for 30 min, and secondary staining with SA-Texas Red for 30 min.
(§4) Data were acquired using an LSRII flow cytometer and Cell Quest software (BD Immunocytometry systems). A minimum of 250000 events were acquired per sample. FACS Analysis was performed using FlowJo software (Tree Star). For analysis, single cells were positively gated based on their forward scatter height vs. forward scatter area and side scatter height vs. side scatter area profiles, lymphocytes were then positively gated based on their forward and side scatter profile (live lymphocyte gate), residual dead cells were excluded with negative gating on v-amine live/dead dye, and all irrelevant non-B cells were excluded with negative gating on dump markers Thy1, F4/80, CD11c, Gr-1, TER-119, and NK-1.1.

[2] = system: total naïve splenic C57BL/6 B cells; settings: C57BL/6, APC-labeled tetramer
Experimental: as §1, §2, §3, §4

[3] = system: mixture of anti-gp41 MPER 13H11 cells and anti-gp120 V3 F39F cells
Experimental: (§5) Use of antibody-coated beads and cell lines for tetramer quality control. Tetramer stocks were diluted to twice the desired final concentration in PBS containing 1% BSA. An equal volume of beads or cells at 5×10^5 up to 2×10^6 per sample were mixed with tetramer and incubated (4° C.×30 min). Beads or cells were washed with PBS+1% BSA before being fixed in 2% methanol-free formaldehyde (Polysciences, Inc, Warrington, Pa.) in PBS. Samples were stored at 4° C. prior to being analyzed by flow cytometry (BD LSR II, Becton Dickinson, Mountain View, Calif.). Data were analyzed using FlowJo (Tree Star, Ashland, Oreg.). For tetramer titration 40-80 ng tetramer per 10^6 cells/beads was serially diluted over 8-12 points. Optimal concentrations determined by this method were used for subsequent experiments. For cold competition experiments the incubation step was performed by staining with 10-fold excess unlabeled tetramer (4° C.×30 min) prior to the addition of APC-labeled tetramer. For cell dilution experiments, a mixture of mAb cell lines was made and then 1:10 serial dilutions of cells prepared. For cross competition experiments, mixtures of cells were prepared and then stained singly with anti-IgG reagents or tetramer, or the cells were doubly stained with both reagents either sequentially or concurrently.

13H11 cells = settings: flow cytometry
Experimental: as §5

B220+ BALB/c splenocytes = settings: pre-incubation with 10-fold molar excess unlabeled tetramer, 30 min on ice
Experimental: as §3

[4] = system: mAb 13H11 and mAb 2F5 on beads; settings: flow cytometry, mAbs 13H11 and 2F5 on beads
Experimental: Antibody-coated beads. Carboxyl-polystyrene beads (3.0-3.4 μm) (Spherotech, Inc., Lake Forest, Ill.) were resuspended in 0.01 M sodium acetate buffer (pH 5.0) and reacted (20° C.×1 hr) with 1-ethyl-3-(3-dimethylaminopropyl) carbodiimide hydrochloride (EDC) (Sigma-Aldrich, Co., St. Louis, Mo.) at a ratio of 3.1 mg beads to 1 mg EDC. Beads were washed with sodium acetate buffer, resuspended in a minimal volume before adding purified mAb in the same buffer (ratio of 16 mg beads to 1 mg mAb), incubated (20° C.×2 hrs), then washed with sodium acetate buffer. Beads were resuspended at 5% in PBS containing 1% bovine serum albumin and 0.02% sodium azide.
as §5

[5] = system: B Cell Receptor of purified naïve BALB/c splenic B cells; settings: 10 μg/ml anti-Ig, 37° C., by 15 min
Experimental: B cell purification, BCR internalization assay, and microscopy of BCR cap formation. Splenic B cells were purified by negative depletion of CD43-expressing non B cells with anti-mouse CD43 MACS beads (Miltenyi Biotechnology) resulting in fractions >90% B cells.
For analysis of BCR internalization by flow cytometry, purified B cells were pre-incubated on ice for 30 min with either a 95:5 unlabeled/R-PE-labeled mixture of 10 μg/ml goat anti-mouse-IgM+IgG (H+L) F(ab)2 fragments (Jackson ImmunoResearch laboratories). To remove excess reagent, cells were then washed, resuspended in DMEM 10% FCS, and stimulated by warming to 37° C. (or at 4° C. as a control) for the indicated time points. […] Percent internalization for tetramers was calculated on gp41 MPER+B220+ subsets (the gp41 MPER gate set based on the FMO control) by the formula [% gp41 MPER (To)−% gp41 MPER (Tn)]/% Sp62 (To)×100. In other experiments, cells were pre-incubated with either 5 mg/ml mannan, 125 mM α-methyl-mannopyranoside (Sigma-Aldrich), or 10 μg/ml unlabeled goat anti-mouse-IgM+IgG (H+L) F(ab)2 fragments, prior to staining with APC-labeled tetramers.

## Biotin-GGGQQEKNEQELLELDKWASLWN [gp41 MPER tetramer]
[1]
  fraction of total naïve splenic B cell repertoire binding tetramer: > 5%
[2]
  fraction of total naïve splenic B cell repertoire binding tetramer: < 0.3%
[3]; mixture diluted tenfold with F39F cells
  cells stained with tetramer: 1.47%
[3]; mixture further diluted tenfold with F39F cells
  cells staining over background: 0.12%
[3]; mixture of 85% F39F cells and 15% 13H11 cells
  cells stained with tetramer: 15.1%
13H11 cells
  binding to mAb cell line: bound
B220+ BALB/c splenocytes
  inhibition of binding of APC-labeled gp41 MPER-tetramer: > 90%
[4]
  binding to antibody-coated beads: bound to both the non-neutralizing mAb 13H11 and the neutralizing anti-gp41 mAb 2F5
[5]
  tetramer downmodulation: > 80%
